Data from publication PMC13249053, “Mechanism of auranofin toxicity: Inhibition of tetrahydrobiopterin metabolism” (Toxicology and applied pharmacology, 2025).

Test system: BH4 formation in HaCaT cells
Assay: BH4 formation from sepiapterin in intact HaCaT cells (HPLC)
Type: cell-based, human
Conditions: MTX 1 μM, 2 h, then 200 μM sepiapterin 3 h; BH2 accumulates
Description: The growth medium was then removed and the cells incubated with growth medium containing 100 μM sepiapterin. […] BH2 and BH4 were then analyzed on a Jasco high-performance liquid chromatography system (Easton, MD) fitted with a Maxsil-10 C18 column (250 × 4 mm; Phenomenex, Torrance, CA). […] Cell viability following drug treatments was greater than 95 %.
Fig. 3. Effects of auranofin on BH2 and BH4 production in intact HaCaT cells treated with sepiapterin. HaCaT cells (~1 × 10^6 cells/well in 6 well culture plates) were incubated with control medium or medium containing increasing concentrations of auranofin for 2 h followed by 100 μM sepiapterin. After an additional 3 h, BH2 and BH4 were extracted from the cells and analyzed by HPLC with fluorescence detection. Left panel: Chromatograms showing BH2 and BH4 content of control cells and cells treated with Auranofin.
Fig. 6. […] Cells were treated with control medium or medium containing MTX (1 μM, 2 h), an inhibitor of DHFR, followed by 200 μM sepiapterin (upper panel) or BH2 (lower panel). After an additional 3 h incubation, cells were rinsed with PBS; BH2 and BH4 were then extracted and analyzed by HPLC as described in the Materials and Methods.

Structure (SMILES): CN(Cc1cnc2nc(N)nc(N)c2n1)c1ccc(C(=O)N[C@@H](CCC(=O)O)C(=O)O)cc1 [methotrexate]
- effect on formation of BH4 from sepiapterin in HaCaT cells: inhibit the formation of BH4 from sepiapterin
